Results on one molecule are retold here after patent US20250198987A1, “SYSTEM FOR MEASURING METASTATIC POTENTIAL OF CANCER CELLS AND METHOD FOR MEASURING METASTATIC POTENTIAL OF CANCER CELLS BY USING SAME” (Seoul National University Hospital, priority 2020, published 2025).

The subject of test [1] is lung cancer cells (A549). Particulars: lung mimicking model, FIG. 5A.
Experimental: Then, gelation was allowed at room temperature for 15 minutes. Then, after coating with collagen (0.03 mg/ml, 1 VL content) (sigma, collagen type I solution) and fibronectin (0.001%, 5 mg) (Sigma, F0895) for two hours at 37° C., a total of 20 μl of 4×10^6/ml of HUVEC (LONZA, HUVEC-Umbil vein, Pooled cells) as vascular endothelial cells was added into one of the cell culture channels, the chip was raised at 90°, and the cells were cultured for one to two hours so as to be adhered in a direction of the gel layer formed in the middle. Then, put the chip down to its original state, replace the medium, and when the vascular endothelial cells form one blood vessel layer starting from the gel layer in the middle, a total of 20 μl of 1×10^6/ml lung cancer cells (A549) were put on the same layer, the chip was raised at 90° and cultured overnight so that the chip was attached in the direction of the gel layer formed in the middle. Then, the chip was put down again, the medium was replaced, and cultured for 5 days, and it was confirmed whether the lung cancer cells migrated to the middle gel layer. After that, the chip was put down to the original state again, the medium was replaced, the cells were cultured for five days, and whether the lung cancer cells migrated to the middle gel layer was checked. […]
The test system of test [2] is lung cancer cells (A549). The note with it: BBB mimicking model, FIG. 5B.
Text: In addition, the BBB mimicking model was manufactured in the same method of manufacturing the lung mimicking model, but astrocytes (Human Astrocytes) (ScienCell, #1800) were used instead of fibroblasts, human brain microvascular endothelial cells (HBMVEC) (Cell systems, ACBRI 376) were used instead of HUVECs as vascular endothelial cells, and the total culture periods were set to be different due to the difference in cell proliferation rates between the lung mimicking model and the BBB mimicking model. […] In the experimental method, as described in Example 1 above, blood vessel cells were treated with CD31, lung cancer cells were treated with cytokeratin 8, and the cells were photographed by using a confocal microscope, Carl Zeiss, LSM710.

Molecules are shown by their SMILES. Counter-ions that a name gives are not always drawn. Like-named read-outs stand apart in the source and are kept apart here.

On to `c1cc(CN2CCCNCCNCCCNCC2)ccc1CN1CCCNCCNCCCNCC1` [AMD3100, AMD3100 (octahydrochloride)], for which the “metastasis of lung cancer cells” value was “generally reduced” in the test with lung cancer cells (A549) [1] (1 μg/ml and 5 μg/ml, treated for one day or six days, compared to the group to which AMD3100 is not treated, confocal microscope); “reduced more” in the test with lung cancer cells (A549) [2] (1 μg/ml and 5 μg/ml, treated for one day or six days, confocal microscope). Moreover, the metastasis suppression entry was “best metastasis suppression” with lung cancer cells (A549) [1] (1 μg/ml treated for six days, compared among treatment groups) and “best metastasis suppression” in the test on lung cancer cells (A549) [2] (1 μg/ml treated for one day, compared among treatment groups).
